Two molecules from patent publication US20220249525A1, “Fatty Acid Compounds for Prevention and Treatment of Neurodegenerative Disorders” (T OMEGA AS, priority 2019, published 2022) can be followed below.

Data set [1] concerns HeLaNRF1/c4 reporter cells. Put plainly: Gene expression (qPCR) in HeLaNRF1/c4 reporter cells. The format is cell-based. Particulars: long-term treatment, vs control. Here is the method: (§1) The HeLaNRF1/c4 reporter cells were employed to investigate effects of the modified fatty acids on NRF1-regulated mitochondrial biogenesis. The cells (250,000) were seeded in T75 flasks and incubated for 3 hours to allow attachment. The compounds were dissolved in DMSO and diluted in culture medium to provide the final concentration. DMSO at a concentration equivalent to the highest compound concentration was added to control cultures. Resveratrol and AICAR were used as positive controls. Resveratrol has not previously been tested in this reporter model, but we found it relevant to include it for purposes of experimental and mechanistic comparisons. After 3 days of treatment the media was replaced with fresh media containing the corresponding compound. On day 5, the cells were harvested and the cultures split into three fractions: One fraction was used for detection of mitoGFP expression by flow cytometry, to assess effects on NRF-1 regulated mitochondrial biogenesis. Flow cytometry analysis was performed as previously described. Another fraction was used for extraction of RNA and subsequent gene expression analysis using quantitative PCR (see below). The last fraction was employed to investigate effects on mitochondrial respiratory function by extracellular flux analysis (described above). The experiment was replicated three times.
Total RNA was extracted from harvested cells (RNAeasy kit Qiagen, Hilden, Germany). The RNA content was quantified on Nanodrop 1000 Spectrophotometer (Thermo Scientific). From 1 μg total RNA, cDNA was synthesized using High-Capacity Reverse Transcription Kit (Applied Biosystems, Carlsbad, Calif., US). Gene quantification was done using TaqMan probes for gene expression assays (Applied Biosystems). Probes used were: PGC1α (PPARG coactivator 1α), Hs00173304_m1; HIF1α (hypoxia inducible factor 1α), Hs00153153_m1; PDK1 (pyruvate dehydrogenase kinase 1), Hs01561847_m1; PDK4, (pyruvate dehydrogenase kinase 4), Hs01037712_m1; SIRT4 (sirtuin 4) Hs01015516_g1; ACOX1 (acyl-CoA oxidase 1) Hs01074241_m1; as reference genes, we used; Eukaryotic 18S rRNA Hs99999901_s1; actin beta Hs99999903_m1. Fold change was calculated as geometric mean of ΔΔCt of the two reference genes.

Data set [2] relates to HeLaNRF1/c4 reporter cells. Description: Mitochondria respiration assay (OCR) in HeLaNRF1/c4 reporter cells after 5 days. Format: cell-based. Here is the method:
Mitochondria function was analyzed by measuring oxygen consumption rate (OCR) by extracellular flux analysis in a Seahorse XFe96 instrument (Agilent Seahorse XF Technologies). The measurements were performed in DADA basic media without phenol red, supplemented with L-glutamine (2 mM), pyruvate (2 mM), and sodium chloride, NaCl (32 mM) (Sigma-Aldrich). Respiratory rates were measured following sequential additions of glucose (10 mM), oligomycin, carbonyl cyanide m-chlorophenyl hydrazine (CCCP) and a mixture of rotenone (1 μM) and antimycin A (1 μM). Before carrying out the measurements for each cell model, optimizations were done for; cell number, CCCP, and oligomycin concentrations. […] The OCR measured initially (before any additions) represented the rate ‘basal respiration.’ The addition of ATP synthase inhibitor oligomycin provided oxygen consumption independent of ATP production (‘leak activity’). Maximal respiration (also referred to as ‘respiratory capacity’) was measured upon addition of the uncoupler CCCP. […] To evaluate the effects of the different treatments, the respiratory rates from compound-treated wells were normalized to protein content, and calculated as percentage of the average respiratory rate of the DMSO-treated control wells. […]

For data set [3], the system named is HeLaNRF1/c4 reporter cells. Put plainly: NRF1-regulated mitochondrial biogenesis, GFP reporter by flow cytometry. The format is cell-based. The settings on record: 5 days; AICAR 250 μM or 500 μM, resveratrol 25 uM, test compounds 30 μM and 60 μM. Here is the method: as §1, with “times. […]” for “times.”
In general terms: Flow cytometry measures light scatter and fluorescence of single cells or particles in a stream.

A further data set concerns HCC827 cells. Description: Mitochondria respiration assay (OCR, extracellular flux) in HCC827 cells. Format: cell-based. The settings on record: compared to control. Here is the method: (§2) Non-small cell lung cancer cells, HCC827 (ATCC) were cultured in RPMI-1640 Glutamax medium (Sigma-Aldrich St. Louis, Mo., USA), under conventional culture conditions. Media was supplemented with 10% Fetal Bovine Serum (FBS), 1% glutamine and 1% streptomycin/penicillin (Sigma-Aldrich). HeLaNRF1/c4 reporter cells were cultured in Dulbecco's Modified Eagle's Medium (DMEM) supplemented with 10% FBS, 2 mM L-Glutamine, 100 u/ml penicillin/streptomycin (Sigma-Aldrich,). Incubation was done at 37° C. in 5% CO2.
Mitochondria function was analyzed by measuring oxygen consumption rate (OCR) by extracellular flux analysis in a Seahorse XFe96 instrument (Agilent Seahorse XF Technologies). The measurements were performed in DADA basic media without phenol red, supplemented with L-glutamine (2 mM), pyruvate (2 mM), and sodium chloride, NaCl (32 mM) (Sigma-Aldrich). Respiratory rates were measured following sequential additions of glucose (10 mM), oligomycin, carbonyl cyanide m-chlorophenyl hydrazine (CCCP) and a mixture of rotenone (1 μM) and antimycin A (1 μM). Before carrying out the measurements for each cell model, optimizations were done for; cell number, CCCP, and oligomycin concentrations. For the HCC 827 cell model optimal conditions were; 30,000 cells/well, 0.5 μM CCCP, and 3 μM Oligomycin; and in HeLaNRF1/c4 reporter cell model; 20,000 cells/well, 1 μM CCCP and 3 μM Oligomycin. The OCR measured initially (before any additions) represented the rate ‘basal respiration.’ The addition of ATP synthase inhibitor oligomycin provided oxygen consumption independent of ATP production (‘leak activity’). Maximal respiration (also referred to as ‘respiratory capacity’) was measured upon addition of the uncoupler CCCP. […] After the extracellular flux analysis the analysis plates were washed with Phosphate Buffered Saline (PBS) and frozen at −80° C. The BCA assay (Pierce BCA protein assay kit, Thermo Fisher Scientific, Waltham, Mass. USA) was employed to measure the protein content in the wells. To evaluate the effects of the different treatments, the respiratory rates from compound-treated wells were normalized to protein content, and calculated as percentage of the average respiratory rate of the DMSO-treated control wells. All treatments were performed with 6-8 replicate wells.

Data set [4] relates to HeLaNRF1/c4 reporter cells. Description: Resazurin conversion assay in HeLaNRF1/c4 reporter cells. The format is cell-based. The settings on record: test compounds 30 μM and 60 μM, long treatment. Here is the method:
as §2
Cell viability/proliferation was determined by the resazurin conversion assay. A total of 4000 cells were seeded in each of the 96-well plates in 100 μl of medium. After 3 hours of incubation, 100 μl of fresh medium with respective concentration of the desired compound or controls were added. Resazurin solution (Sigma-Aldrich) was added (10%, v/v in PBS) after 1 or 3 day treatment, followed by 3 hour incubation at 37° C. and 5% CO2. Resazurin fluorescence (excitation, 540 nm; emission, 590 nm) was measured and measurements were corrected for background signals. […] Relative viability was calculated from percent fluorescence relative to DMSO-treated control wells.
In order to investigate if some of the compounds induce metabolic adaptations involving mitochondrial biogenesis, we employed the HeLaNRF1/c4 reporter cells in which activation of the transcription factor NRF1 triggers expression of GFP. Since adaptations of mitochondrial biogenesis are known to require some days to develop, we used a relatively low dosage (30 μM and 60 μM) of the compounds, to allow longer treatment period compared to the previous short term experiments.

A short description of data set [5]: Mildronate-induced fatty liver, liver triacylglycerol. The format is in vivo. The settings on record: C57BL/6 mice; Mildronate 550 mg/kg body weight in low-fat diet; 3 weeks. As for the experimental part: C57BL/6 mice were divided in 4 groups of 10 mice and fed a control low-fat diet, low-fat diets with TTA (720 mg/kg body weight), Mildronate (550 mg/kg body weight) or a combination of these two treatments for 3 weeks (n=10). At sacrifice, liver samples were collected, lipids were extracted, and triacylglycerol (TAG) measured on the Hitachi 917 system (Roche Diagnostics, GmbH, Mannheim, Germany) using a kit from Roche Diagnostics.

On to `NC(=O)c1ncn([C@@H]2O[C@H](CO)[C@@H](O)[C@H]2O)c1N` [AICAR, 5-aminoimidazole-4-carboxamide-1-β-D-ribofuranoside, reference compound], for which, in data set [1], the PGC1α expression result is given as “reduced PGC1α expression”. Further, in data set [2], the basal respiratory rate entry is on record as “without affecting the basal respiratory rate” and the “uncoupled respiratory capacity (CCCP)” value is “only increased in the AICAR-treated cells”. Further, in data set [3], the “GFP intensity (NRF1 reporter)” value is reported as “significant increase”. The “basal respiratory rate (OCR)” value in the data set on HCC827 cells is reported as “little or no effect”. For the same molecule, the resazurin conversion entry in data set [4] is “moderate reduction”.
Take `C[N+](C)(C)NCCC(=O)[O-]` [Mildronate, 3-(2,2,2-trimethylhydrazinium)propionate]: in data set [5], the “increase in liver triacylglycerol (TAG)” value turned out to be 7 fold.
